In brackets after ≈: the same amount, converted by molar mass. Where two headings read alike, the source gives them in different places.
Key:
E. faecium 9-F-6 [1] = test system: T1, E. faecium 9-F-6; experiment: microbe, parasite or virus in culture; parameters: Broth microdilution MIC, EUENCF Sensititre plate, multidrug-resistant clinical isolate; conditions: Enterococcus faecium, 9F6, read-out: MIC BMD
T1 construct: 9-F-6 (ST872)
Description: (§1) ST872 is a single locus variant of ST80 which is a pandemic hospital-adapted genetic lineage. […] The results (MICs) were interpreted according to EUCAST clinical breakpoints v.

E. faecium 9-F-6 [2] = test system: T1, E. faecium 9-F-6; experiment: microbe, parasite or virus in culture; parameters: Gradient test MIC (MIC Test Strip, Liofilchem), multidrug-resistant clinical isolate; conditions: Enterococcus faecium, 9F6, read-out: MIC GRAD
Description: as §1

| Compound | MIC (E. faecium 9-F-6 [1]) [µg/mL] | MIC (E. faecium 9-F-6 [2]) [µg/mL] |
| --- | --- | --- |
| CC1(C)S[C@@H]2[C@H](NC(=O)[C@H](N)c3ccc(O)cc3)C(=O)N2[C@H]1C(=O)O [Amoxicillin] | > 32 |  |
| CC1(C)S[C@@H]2[C@H](NC(=O)[C@H](N)c3ccccc3)C(=O)N2[C@H]1C(=O)O [Ampicillin] | > 32 | > 256 |
| O=C(N[C@H](CO)[C@H](O)c1ccc([N+](=O)[O-])cc1)C(Cl)Cl [Chloramphenicol] |  | 16 (≈ 49.5 µM) |
| CCC[C@@H]1C[C@@H](C(=O)N[C@@H]([C@H]2O[C@H](SC)[C@H](O)[C@@H](O)[C@H]2O)[C@H](C)Cl)N(C)C1 [Clindamycin] |  | > 256 |
| CNC(C)[C@@H]1CC[C@@H](N)[C@@H](O[C@H]2[C@H](O)[C@@H](O[C@H]3OC[C@](C)(O)[C@H](NC)[C@H]3O)[C@H](N)C[C@@H]2N)O1 (some centres unmarked) [Gentamicin] | > 256 | > 1020 |
| C[C@@H](O)[C@H]1C(=O)N2C(C(=O)O)=C(SCCNC=N)C[C@H]12 [Imipenem] | > 16 |  |
| C[C@H]1COc2c(N3CCN(C)CC3)c(F)cc3c(=O)c(C(=O)O)cn1c23 [Levofloxacin] | > 16 |  |
| CC(=O)NC[C@H]1CN(c2ccc(N3CCOCC3)c(F)c2)C(=O)O1 [Linezolid] | 8 (≈ 23.7 µM) |  |
| CN[C@@H]1[C@H](O[C@H]2[C@H](O[C@H]3[C@H](O)[C@@H](O)[C@H](N=C(N)N)[C@@H](O)[C@@H]3N=C(N)N)O[C@@H](C)[C@]2(O)C=O)O[C@@H](CO)[C@H](O)[C@H]1O [Streptomycin] | > 1020 |  |
| CN(C)c1cc(NC(=O)CNC(C)(C)C)c(O)c2c1C[C@H]1C[C@H]3[C@H](N(C)C)C(O)=C(C(N)=O)C(=O)[C@@]3(O)C(O)=C1C2=O [Tigecycline] | 0.12 (≈ 0.205 µM) |  |
| CN[C@H](CC(C)C)C(=O)N[C@H]1C(=O)N[C@@H](CC(N)=O)C(=O)N[C@H]2C(=O)N[C@H]3C(=O)N[C@H](C(=O)N[C@H](C(=O)O)c4cc(O)cc(O)c4-c4cc3ccc4O)[C@H](O)c3ccc(c(Cl)c3)Oc3cc2cc(c3O[C@@H]2O[C@H](CO)[C@@H](O)[C@H](O)[C@H]2O[C@H]2C[C@](C)(N)[C@H](O)[C@H](C)O2)Oc2ccc(cc2Cl)[C@H]1O [Vancomycin] | > 16 | > 256 |

Source: publication PMC8987054, “Structural basis for PoxtA-mediated resistance to phenicol and oxazolidinone antibiotics” (Nature Communications, 2022)
